“Also recorded” adds a separate entry of the source. Where two headings read alike, the source gives them in different places.
Columns and labels:
AU565 = experiment: Proliferation rate of AU565 cells overexpressing SLC7A11 with 1 μM CB-839; format: cell-based; conditions: SLC7A11 overexpression, RPMI vs RPMI (10 μM cystine)
Procedure: (§1) Proliferation rates for MDA-MB-468 and AU565 cell lines overexpressing SLC7A11 or not (from FIG. 4G) in RPMI or RPMI (10 μM cystine) with vehicle (DMSO) or 1 μM CB-839 are shown. The values represent the mean and the error bars represent ±SEM.
(§2) Cell lines growing in log phase in RPMI medium were trypsinized, counted and plated into 6 well dishes in 2 mL of RPMI medium and incubated overnight. Initial seeding density was 20,000 cells/well for A549 cells, or 50,000 cells for MCF7, AU565 and MDA-MB-468 cells. The next day, a plate of cells was trypsinized and counted to provide a number of cells at the start of the experiment. Cells were then washed twice with 2 mL of PBS, and […] of the indicated media premixed with indicated compounds or vehicles was added. Cells were then counted 4 days after adding the indicated medias. Proliferation rate was determined using the following formula:
(§3) Proliferation rate in doublings/day=[Log 2(Final Day 4 cell count/Initial Day 0 cell count)]/4 days. Cells were counted using a Cellometer Auto t$ Plus Cell Counter (Nexcelom Bioscience).

MDA-MB-468 = experiment: Proliferation rate of MDA-MB-468 cells overexpressing SLC7A11 with 1 μM CB-839; format: cell-based; conditions: SLC7A11 overexpression, RPMI vs RPMI (10 μM cystine)
Procedure: as §1, §2, §3

breast cancer cell lines = conditions: RPMI, cited from earlier work
A549 cells [1] = experiment: 13C5-glutamine tracing of glutamine anaplerosis in cultured A549 cells; format: cell-based, human; conditions: A549 cells cultured 8 h; high cystine (208 μM added to adult bovine serum)
Text: Each medium included ^13C5-glutamine added to ˜33% enrichment (n=3). […] For all parts of the figure, the values represent the mean and the error bars represent ±SEM.

A549 cells [2] = experiment: Proliferation rate of A549 cells with vehicle or 1 μM CB-839 in different media; format: cell-based, human; conditions: cystine at RPMI/DMEM levels
Procedure: Each medium included ^13C5-glutamine added to ˜33% enrichment (n=3). […] For all parts of the figure, the values represent the mean and the error bars represent ±SEM. […] In FIG. 8A, A549 cells were cultured in adult bovine serum with DMEM nutrient levels, adult bovine serum with DMEM amino acid levels, and adult bovine serum with DMEM amino acid levels but without supplementation of the amino acids indicated in each column. For each medium, the proliferation rate for cells grown with vehicle (DMSO) or 1 μM CB-839 is shown (n=3). […] Cell lines growing in log phase in RPMI medium were trypsinized, counted and plated into 6 well dishes in 2 mL of RPMI medium and incubated overnight. […] The next day, a plate of cells was trypsinized and counted to provide a number of cells at the start of the experiment. […] Cells were then counted 4 days after adding the indicated medias. Proliferation rate was determined using the following formula: Proliferation rate in doublings/day=[Log 2(Final Day 4 cell count/Initial Day 0 cell count)]/4 days. Cells were counted using a Cellometer Auto t$ Plus Cell Counter (Nexcelom Bioscience).

A549 tumors = experiment: Tumor glutamine anaplerosis in A549 tumor-bearing mice after oral cystine; format: in vivo; conditions: oral cystine before 13C5-glutamine bolus
Procedure: In FIG. 5A, nu/nu mice were treated orally with 2.4 g/kg cystine and plasma from these animals was serially collected at the indicated time points. Cystine concentration of the plasma was determined by GC-MS. In FIG. 5B, A549 tumor-bearing mice were treated (n=4) or not (n=3) with oral cystine prior to bolus ^13C5-glutamine injection prior to harvesting the plasma and tumors. […] In FIG. 5C, intratumoral glutamate (m+5) and α-ketoglutarate (m+5) labeling from FIG. 5B were normalized to tumor glutamine (m+5).

| SMILES | sensitivity of proliferation to CB-839 (AU565) | sensitivity of proliferation to CB-839 (MDA-MB-468) | IC50 (breast cancer cell lines; 'resistant' breast cancer cell lines, maximal CB-839 tested 1 μM) [nM] | IC50 (breast cancer cell lines; sensitive breast cancer cell lines) [nM] | effect on glutamine anaplerosis (fractional labeling from 13C5-glutamine) (A549 cells [1]) | effect of cystine on CB-839 inhibition of proliferation (A549 cells [2]) | effect on tumor glutamine anaplerosis in vivo (A549 tumors) |
| --- | --- | --- | --- | --- | --- | --- | --- |
| O=C(Cc1cccc(OC(F)(F)F)c1)Nc1ccc(CCCCc2nnc(NC(=O)Cc3ccccn3)s2)nn1 [CB-839] | cystine-induced CB-839 sensitivity | cystine-induced CB-839 sensitivity | > 1000 | < 1000 | – | – | – |
| N[C@@H](CSSC[C@H](N)C(=O)O)C(=O)O [cystine] | – | – | – | – | enhance glutamine anaplerosis | potentiate the effects of the glutaminase inhibitor CB-839; also recorded: potentiates the glutaminase inhibitor CB-839 | increases tumor glutamine anaplerosis in vivo |

From patent US10786471B2, “Methods and products related to glutaminase inhibitors” (Massachusetts Institute of Technology, priority 2017, dated 2020)
